In BindingDB's records for PubMed 7908055 (Case Western Reserve University, 1994):

Assays:
[1] = target: 5-hydroxytryptamine receptor 2A (Rattus norvegicus, UniProt P14842)
D(2) dopamine receptor = D(2) dopamine receptor (Rattus norvegicus, UniProt P61169)
[2] = target: T1, 5-hydroxytryptamine receptor 2C (Rattus norvegicus, UniProt P08909)
T1 sequence (P08909 whole entry): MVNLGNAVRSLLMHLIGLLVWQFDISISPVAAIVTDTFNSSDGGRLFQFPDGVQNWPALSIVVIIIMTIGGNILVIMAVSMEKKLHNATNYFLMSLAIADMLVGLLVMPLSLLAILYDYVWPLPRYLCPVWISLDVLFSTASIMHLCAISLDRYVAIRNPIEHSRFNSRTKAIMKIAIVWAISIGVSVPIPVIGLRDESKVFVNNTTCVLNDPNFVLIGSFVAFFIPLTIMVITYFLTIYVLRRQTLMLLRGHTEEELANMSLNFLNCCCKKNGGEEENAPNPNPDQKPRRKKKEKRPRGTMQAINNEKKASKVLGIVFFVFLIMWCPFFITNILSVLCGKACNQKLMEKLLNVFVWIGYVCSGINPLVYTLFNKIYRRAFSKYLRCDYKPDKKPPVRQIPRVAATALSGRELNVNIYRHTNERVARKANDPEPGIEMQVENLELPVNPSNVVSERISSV

Sequence of 5-hydroxytryptamine receptor 2A (P14842 whole entry): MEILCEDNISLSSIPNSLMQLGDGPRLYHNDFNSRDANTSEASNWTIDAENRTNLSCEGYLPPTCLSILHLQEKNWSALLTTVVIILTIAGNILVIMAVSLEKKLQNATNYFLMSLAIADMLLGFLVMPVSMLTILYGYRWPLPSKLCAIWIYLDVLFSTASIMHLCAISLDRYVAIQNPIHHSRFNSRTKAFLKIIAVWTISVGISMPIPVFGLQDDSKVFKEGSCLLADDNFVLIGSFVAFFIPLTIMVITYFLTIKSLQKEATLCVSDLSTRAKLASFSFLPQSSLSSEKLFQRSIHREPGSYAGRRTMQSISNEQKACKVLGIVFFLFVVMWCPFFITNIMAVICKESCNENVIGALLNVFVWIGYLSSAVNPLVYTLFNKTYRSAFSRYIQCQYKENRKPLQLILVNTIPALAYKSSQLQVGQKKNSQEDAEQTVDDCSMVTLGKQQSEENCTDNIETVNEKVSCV
Sequence of D(2) dopamine receptor (P61169 whole entry): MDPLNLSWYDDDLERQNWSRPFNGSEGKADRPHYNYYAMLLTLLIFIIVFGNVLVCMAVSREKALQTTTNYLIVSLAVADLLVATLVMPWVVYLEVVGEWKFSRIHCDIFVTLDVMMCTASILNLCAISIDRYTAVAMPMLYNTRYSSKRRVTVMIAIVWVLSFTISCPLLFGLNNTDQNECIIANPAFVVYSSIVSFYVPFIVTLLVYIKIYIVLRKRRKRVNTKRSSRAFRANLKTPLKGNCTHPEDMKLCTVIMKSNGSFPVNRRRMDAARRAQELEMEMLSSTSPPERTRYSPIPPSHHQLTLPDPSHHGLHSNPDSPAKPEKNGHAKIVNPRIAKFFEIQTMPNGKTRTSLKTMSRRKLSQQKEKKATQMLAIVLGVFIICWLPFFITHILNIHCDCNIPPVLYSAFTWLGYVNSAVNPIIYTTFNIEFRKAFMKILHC

Work on `CC1CN(CCCn2c3ccccc3c3ccccc32)CC(C)N1` (stereo unspecified) [9-[3-(3,5-dimethylpiperazin-1-yl)propyl]-9H-carbazole] yielded a Ki [1] of 5010 nM.

In the case of `CN1CCN(C2=Nc3cc(F)ccc3Cc3ccccc32)CC1`, the Ki [1] is reported as 6.3 nM, the Ki (D(2) dopamine receptor) is reported as 316 nM and the Ki [2] is reported as 19.9 nM.

`CCc1c(C)[nH]c2c1C(=O)C(CN1CCOCC1)CC2` (stereo unspecified) [Moban] was tested, and the Ki [1] was 501 nM and the Ki (D(2) dopamine receptor) was 15.8 nM.

`CCNC(=O)N1CCN(CCCC(c2ccc(F)cc2)c2ccc(F)cc2)CC1` showed a Ki [1] of 12.6 nM, a Ki (D(2) dopamine receptor) of 501 nM and a Ki [2] of 1260 nM.

With `CN1CCN(CC/C=C2/c3ccccc3Sc3ccc(S(=O)(=O)N(C)C)cc32)CC1` [MLS000028463] the Ki (D(2) dopamine receptor) was 0.63 nM and the Ki [2] was 1580 nM.

`OCCN1CCN(CCCN2c3ccccc3Sc3ccc(Cl)cc32)CC1` [4-[3-(2-chlorophenothiazin-10-yl)propyl]-1-piperazineethanol] showed a Ki [1] of 2.51 nM, a Ki (D(2) dopamine receptor) of 0.63 nM and a Ki [2] of 50.1 nM.

With `CN1CCN(C2=Nc3ccccc3Oc3ccc(Cl)cc32)CC1` [13-chloro-10-(4-methylpiperazin-1-yl)-2-oxa-9-azatricyclo[9.4.0.0^{3,8}]pentadeca-1(11),3,5,7,9,12,14-heptaene] the Ki (D(2) dopamine receptor) was 7.94 nM.

With `CN1CCN(CCCN2c3ccccc3Sc3ccc(Cl)cc32)CC1` [2-chloro-10-[3-(4-methylpiperazin-1-yl)propyl]phenothiazine;ethane-1,2-disulfonic acid] the Ki [1] was 6.3 nM and the Ki [2] was 79.4 nM.

`CN1CCN(C2=Cc3cc(Cl)ccc3C(=CC#N)c3ccccc32)CC1` [CAS_79781-95-6] showed a Ki [1] of 0.63 nM, a Ki (D(2) dopamine receptor) of 39.8 nM and a Ki [2] of 25.1 nM.

For `CN1CCCCC1CCN1c2ccccc2Sc2ccc([S+](C)[O-])cc21` (stereo unspecified), the Ki (D(2) dopamine receptor) was 7.94 nM.

`CC1CCN(CCCC(=O)c2ccc(F)cc2)CC1` [CAS_3575-80-2] was tested, and the Ki (D(2) dopamine receptor) was 200 nM and the Ki [2] was 1260 nM.

Compound `CN1CCN(C2=Nc3cscc3C(=CC#N)c3cscc32)CC1` [NSC_3086153] has a Ki (D(2) dopamine receptor) of 1580 nM and a Ki [2] of 63.1 nM.

Work on `CN1CCN(C2=Nc3ccccc3Sc3ccc(Cl)cc32)CC1` [2-chloro-11-(4-methylpiperazin-1-yl)dibenzo[b,f][1,4]thiazepine] yielded a Ki [1] of 0.79 nM.

Work on `CC(=O)c1ccc2c(c1)N(CCCN1CCN(CCO)CC1)c1ccccc1S2` [CAS_5714-00-1] yielded a Ki [2] of 1000 nM.

`OC1(c2ccc(Cl)c(C(F)(F)F)c2)CCN(CCCC(c2ccc(F)cc2)c2ccc(F)cc2)CC1` [Penfluridol] was tested, and the Ki [1] was 63.1 nM.

In the case of `CN1CCN(C2=Nc3ccccc3Cc3ccccc32)CC1`, the Ki [1] is reported as 12.6 nM and the Ki (D(2) dopamine receptor) is reported as 501 nM.

Work on `O=C1CC2(CCCC2)CC(=O)N1CCCCN1CCN(c2nsc3ccccc23)CC1` [TIOSPERONE] yielded a Ki (D(2) dopamine receptor) of 0.5 nM and a Ki [2] of 10 nM.

For `CCN1CCC[C@H]1CNC(=O)c1c(O)c(Cl)cc(Cl)c1OC` [3,5-Dichloro-N-(1-ethyl-pyrrolidin-2-ylmethyl)-2-hydroxy-6-methoxy-benzamide (raclopride)], the Ki [1] was 5010 nM and the Ki [2] was 5010 nM.

For `O=c1[nH]c2ccccc2n1C1CCN(CCCC(c2ccc(F)cc2)c2ccc(F)cc2)CC1` [1-(1-(4,4-bis(4-fluorophenyl)butyl)piperidin-4-yl)-1H-benzo[d]imidazol-2(3H)-one], the Ki [2] was > 10000 nM.

`CN(C)CC/C=C1\c2ccccc2Sc2ccc(Cl)cc21` showed a Ki [1] of 0.39 nM.
